Test results: paper PMC11998406 (BMC Chemistry, 2025)

Experiments:
BChE = BChE (Equus caballus, UniProt P81908); experiment: Kinetic study of BChE inhibition; format: biochemical, horse; conditions: 13s at 0, 5, 20, 40 µM; butyrylthiocholine iodide 187.5-3000 µM
[1] = system: SH-SY5Y neuroblastoma cell line; experiment: Cell viability; format: cell-based; conditions: up to 25 µM

Sequence of BChE (P81908 whole entry): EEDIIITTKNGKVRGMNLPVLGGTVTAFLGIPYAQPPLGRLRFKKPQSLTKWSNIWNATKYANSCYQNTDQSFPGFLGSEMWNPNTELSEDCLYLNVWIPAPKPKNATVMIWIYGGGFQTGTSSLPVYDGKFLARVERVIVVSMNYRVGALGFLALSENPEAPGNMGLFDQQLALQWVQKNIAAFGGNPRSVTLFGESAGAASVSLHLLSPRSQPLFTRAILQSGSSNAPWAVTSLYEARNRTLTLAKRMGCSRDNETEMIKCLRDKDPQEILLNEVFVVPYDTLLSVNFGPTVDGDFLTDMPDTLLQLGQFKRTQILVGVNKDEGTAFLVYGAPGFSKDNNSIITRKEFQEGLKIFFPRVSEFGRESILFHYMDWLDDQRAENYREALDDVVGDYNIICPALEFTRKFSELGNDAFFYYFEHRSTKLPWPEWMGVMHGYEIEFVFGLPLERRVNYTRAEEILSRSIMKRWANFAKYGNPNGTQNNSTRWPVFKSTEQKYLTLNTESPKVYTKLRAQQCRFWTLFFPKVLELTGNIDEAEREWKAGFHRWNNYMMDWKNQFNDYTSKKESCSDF

For `Cc1ccc(Cn2cc(COc3ccc(-c4nnc(-c5ccc([N+](=O)[O-])cc5)o4)cc3)nn2)cc1` [Compound 13s, 2-(4-((1-(4-Methylbenzyl)-1 H-1,2,3-triazol-4-yl)methoxy)phenyl)-5-(4-nitrophenyl)-1,3,4-oxadiazole], the “mechanism of BChE inhibition (Lineweaver-Burk)” value (BChE) was “competitive inhibition pattern” and the toxicity [1] was “no toxicity”.
